The source of these data is US4299970A, “Oxy-alkylamino carboxylic esters” (Beecham Group Limited, priority 1974, dated 1981).

pIC50: −log10 of the molar value. ≈ marks a conversion by molar mass, not a printed value.

The subject of experiment [1] is guinea pig platelet aggregation induced by ADP. Briefly: inhibition of guinea pig platelet aggregation induced in vitro by ADP. As to conditions: Cavia porcellus, ADP 5.45×10^-7 M, platelet rich plasma, 37° C. It is filed as cell-based. How it is done:
a. The compounds were examined for their ability to inhibit guinea pig platelet aggregation induced, in vitro, by 5.45×10^-7 M adenosine diphosphate (ADP).
The method consisted of diluting the compound immediately before use from a 10 mg/ml solution in ethanol to a 1 mg/ml solution with saline and then adding the appropriate volume to 0.5 ml of platelet rich plasma. The mixture was stirred at 37° C. for 1 minute before 25 μl of an ADP solution was added to give a final ADP concentration of 5.45×10^-7 M. The aggregation response was then recorded relative to the control.

For experiment [2], the system named is 5-hydroxy-tryptamine-induced bronchoconstriction. Briefly: inhibition of 5-hydroxytryptamine-induced bronchoconstriction (Konsett-Rossler preparation). In kind it is in vivo, guinea pig. The settings on record: Cavia porcellus; intravenous, 2 minutes prior to 5-hydroxytryptamine dose. As to the method: a. The compounds were examined for their ability to inhibit 5-hydroxy-tryptamine-induced bronchoconstriction in the anaesthetised, artifically respired guinea pig (Konsett-Rossler preparation).
H. Konsett and R. Rossler, (1940), Naunyn-Schneidebergs Arch. Exp. Path. Pharmak., 195, 71.
After preparation of the guinea pig, a dose of 5-hydroxytryptamine producing an adequate response was determined by dosing, i.v., every 6 minutes. This dose was usually 10 μg. After a standard response was obtained, compounds were given intra-venously 2 minutes prior to the next standard dose and dosing of 5-hydroxytryptamine was continued every 6 minutes until the response returned to control values.

In experiment [3] the test system is pentagastrin-stimulated gastric acid secretion. The experiment in a line: inhibition of pentagastrin-stimulated gastric acid secretion, anaesthetised perfused rat stomach (Ghosh and Schild preparation). It is filed as in vivo. As to conditions: intravenous. The text has this: a. The compounds were examined for their ability to inhibit pentagastrin-stimulated gastric acid secretion in the anaesthetised, perfused rat stomach preparation (Ghosh and Schild preparation).
M. N. Ghosh and H. O. Schild, (1958), Brit. J. Pharmacol, 13, 54.
The compounds were given intravenously.

The next experiment relates to arterial blood pressure. Briefly: effect on arterial blood pressure in the anaesthetised, normotensive rat. It is filed as in vivo. As to conditions: intravenous, dose range 0.001 → 1.0 mg/kg. How it is done:
a. The effect of the compounds on arterial blood pressure was determined in the anaesthetised, normotensive rat. The rat preparation was similar to that desribed in "Pharmacological experiments on intact preparations", E. and S. Livingstone, Edinburgh and London, 1970, p. 63.
The active compounds were predominantly depressor agents in the normotensive rat.

The test system of experiment [4] is histamine-induced asphyxic collapse. Briefly: protection against aerosol administered, histamine-induced asphyxic collapse. In kind it is in vivo, guinea pig. The text has this: b. The compounds were examined for their ability to protect against aerosol administered, histamine-induced asphyxic collapse in guinea pigs.
M. A. Wasserman and R. L. Griffen, (1975), Am. Rev. Resp. Dis., 111, 946.

For a further experiment, the system named is gerbil colon. The experiment in a line: prostaglandin-like activity on the isolated perfused gerbil colon. As to conditions: De Jalon's saline, 32° C. As to the method: (§1) The compounds were tested for prostaglandin-like and for prostaglandin antagonist activity on the isolated perfused gerbil colon preparation (smooth muscle). This has been shown by J. R. Weeks, J. R. Schultz and W. E. Brown, (1968), J. App. Physiol, 25, 783, to have greater precision and sensitivity than other preparations. A 15 mm portion of the descending colon is suspended in an organ bath and perfused with De Jalon's saline at 32° C. Compounds were given in a three minute cycle with a 45 second contact time and a 15 second washout time. Antagonist compounds were given with a one minute pre-contact time.
Prostaglandin-like activity was determined using the method of H. O. Schlid, (1942), J. Physiol., 101, 115, which is a standard 4×4 latin square assay. Some of the compounds stimulated the gerbil colon to contract which is a prostaglandin-like effect, and the results are shown in Table 15.

For experiment [5], the system named is human platelet aggregation induced by collagen. The experiment in a line: inhibition of human platelet aggregation induced in vitro by collagen. In kind it is cell-based. The settings on record: 10^-4 M, collagen, platelet rich plasma, 37° C. How it is done: b. The compounds were examined for their ability to inhibit human platelet aggregation induced, in vitro, either by adenosine diphosphate (ADP) or collagen. The compounds were added in saline or dimethylformamide to platelet rich plasma at 37° C. to give a final concentration of 10^-4 M. After 3 minutes the platelets were challenged with ADP or collagen. The aggregation response was then recorded relative to the control.

Experiment [6] concerns gerbil colon; contraction to prostaglandin F2α. Briefly: prostaglandin antagonist activity on the isolated perfused gerbil colon (contraction to prostaglandin F2α). As to conditions: Meriones unguiculatus; reduction of contraction to prostaglandin F2α; one minute pre-contact time. How it is done:
as §1
Antagonist activity was determined by measuring the percentage reduction of the contraction to two standard doses of prostaglandin F2α which gave responses between 20% and 80% of maximum response.

A further experiment deals with antifertility activity. The experiment in a line: antifertility activity in female mice. It is filed as in vivo. As to conditions: 50-100 mg/kg, s.c.; 5 days pre-coitally and 10 days post-coitally. As to the method:
Antifertility activity was determined by subcutaneous dosing of female mice for 5 days pre-coitally and 10 days post-coitally. Three female mice per group were used and these were mated with males of proven fertility and mating confirmed by examination for copulation plugs.

In experiment [7] the test system is femoral artery of the hind limb. The experiment in a line: vasodilator activity in femoral artery of the hind limb (vascular resistance). It is filed as in vivo, beagle dog. The settings on record: dose range of 0.01-1 mg/kg, intra-arterially. How it is done:
(§2) b. The vasodilator activity of the compounds was determined in the femoral artery of the hind limb of the anaesthetised beagle dog. The method used was similar to that described by J. Nakano and J. R. McCurdy, (1967), J. Pharmac. Exp. Ther., 156, 538.
The compounds were administered into the iliac artery and the effects on both flow and pressure in the hind limb were recorded. Changes in vascular resistance (R) were calculated from the following expression: [formula]

The test system of experiment [8] is total peripheral resistance. The experiment in a line: total peripheral resistance, intravenous. In kind it is in vivo, beagle dog. The settings on record: dose range of 0.01-10 mg/kg, intra-venously. As to the method: as §2
In other experiments the compounds were administered into the left femoral vein and the right femoral arterial pressure and cardiac output were monitored. From these experiments, total peripheral resistance (TPR) was calculated from the expression: [formula]

One may read the pIC50 as −log10 of the IC50, conventionally taken in molar units. For `CCCCCCC(C)(O)CCN1C(=O)CCC(=O)C1CCCCCCC(=O)OCC` (stereo not shown) [Compound 56], the negative logarithm of the IC50 (pIC50) in [1] is 4.29. As usually defined, the ED50 is the midpoint of the dose-response relation. A low value points to greater potency. `CCCCCCCC(C)(O)CCN1C(=O)CCC(=O)C1CCCCCCC(=O)OCC` (stereo not shown) [Compound 57, 2-(6'-Ethoxycarbonyl-n-hexyl)-1-(3"-hydroxy-3"-methyl-n-decyl)-piperidin-3,6-dione] came in with a median effective dose (ED50) in [2] of 0.253 mg/kg.

As to `CCCCCC(C)C(C)(O)CCN1C(=O)CCC(=O)C1CCCCCCC(=O)OCC` (stereo not shown) [Compound 60], in [1], the negative logarithm of the IC50 (pIC50) was 4.96. The compound also returned an ED50 in experiment [3] of 1 mg/kg. Turning to `CCCCCC(C)(O)CCN1C(=O)CC(=O)C1CCCCCCC(=O)OCC` (stereo not shown) [Compound 62, 2-(6'-Ethoxycarbonyl-n-hexyl)-1-(3"-hydroxy-3"-methyl-n-octyl)-pyrrolidin-3,5-dione], in the experiment with arterial blood pressure, the “% Depression at 1 mg/kg” value came to 70%. Further, the 50% effective dose (ED50) amounted to 0.088 mg/kg in experiment [2] and 0.72 mg/kg in [3]. Also, the negative logarithm of the IC50 (pIC50) in [1] is 4.70.

On to `CCCCCCCC(C)(O)CCN1C(=O)CC(=O)C1CCCCCCC(=O)OCC` (stereo not shown) [Compound 64, 2-(6'-Ethoxycarbonyl-n-hexyl)-1-(3"-hydroxy-3"-methyl-n-decyl)-pyrrolidin-3,5-dione], for which, in [4], the “protecting against histamine challenge” value is given as “very effective”. Also, the ED50 in [2] is 0.011 mg/kg. Besides, the negative logarithm of the IC50 (pIC50) in experiment [1] was 5.05.

For the compound `CCCCCCC(O)(CC)CCN1C(=O)CC(=O)C1CCCCCCC(=O)OCC` (stereo not shown) [Compound 68, 2-(6'-Ethoxycarbonyl-n-hexyl)-1-(3"-hydroxy-3"-ethyl-n-nonyl)-pyrrolidin-3,5-dione], the negative-log IC50 (pIC50) in experiment [1] is 5.40. `CCOC(=O)CCCCCCC1C(=O)CCC(=O)N1CCCO` (stereo not shown) [Compound 74] yielded a Concentration/ml. for contractions in the experiment with gerbil colon of 4 to 8 µg/mL. By inhibition is commonly meant the drop in the measured response relative to a control, in per cent. Higher therefore signals a strong effect. Regarding `CCCCCC(O)CCN1C(=O)CC(=O)C1CCCCCCC(=O)OCC` (stereo not shown) [Compound 75, 2-(6'-ethoxycarbonyl-n-hexyl)-1-(3"-hydroxy-n-octyl)-pyrrolidin-3,5-dione], the Concentration/ml. for contractions in the experiment on gerbil colon lay in the range of 0.2 to 0.5 µg/mL. The compound also yielded an inhibition at 100 µM in [5] of 61%. `CCCCCC(O)CCN1C(=O)CC(O)C1CCCCCCC(=O)OCC` (stereo not shown) [Compound 76, 2-(6'-ethoxycarbonyl-n-hexyl)-3-hydroxy-1-(3"-hydroxy-n-octyl)-pyrrolidin5-one] had an inhibition at 100 µM in [5] of 79%. In [1], this compound showed a pIC50 of 3.83.

On to `CCCCCCC(O)CCN1C(=O)CC(=O)C1CCCCCCC(=O)OCC` (stereo not shown) [Compound 77, 2-(6'-ethoxycarbonyl-n-hexyl)-1-(3"-hydroxyn-nonyl)-pyrrolidin-3,5-dione], for which the “% Depression at 1 mg/kg” value with arterial blood pressure turned out to be 30%. Moreover, the values for the median effective dose (ED50) in experiment [2] and in [3] were 0.38 mg/kg and 2.6 mg/kg, respectively. In addition, the pIC50 in [1] is 5.27.

In turn, `CCCCCCC(O)CCN1C(=O)CCC(=O)C1CCCCCCC(=O)OCC` (stereo not shown) [Compound 78] gave an inhibition at 100 µM in experiment [5] of 65%. In the experiment with arterial blood pressure, the “% Depression at 1 mg/kg” value is listed as 30%. As usually defined, the IC50 is the midpoint of a concentration-inhibition curve. Compound `CCCCCC(CCN1C(=O)CCC(O)C1CCCCCCC(=O)OCC)OCc1ccccc1` (stereo not shown) [Compound 79] showed an IC50 in experiment [6] of 0.76 µg/mL (≈ 1.55 µM).

As to `CCOC(=O)CCCCCCC1C(O)CCC(=O)N1CCCOCc1ccccc1` (stereo not shown) [Compound 80], the IC50 in experiment [6] turned out to be 3.1 µg/mL (≈ 7.39 µM). Same read-out and setting: then `CCCCCC(CCN1C(=O)CC(O)C1CCCCCCC(=O)OCC)OCc1ccccc1` (stereo not shown) [Compound 81], with 0.17 µg/mL (≈ 0.357 µM). As for `CCCCCCC(C)(O)CCN1C(=O)CC(O)C1CCCCCCC(=O)OCC` (stereo not shown) [Compound 86], the median effective dose (ED50) in experiment [2] stood at 0.505 mg/kg. For the same compound, the pIC50 in experiment [1] was 4.26. Turning to `CCCCCCC(O)CCN1C(=O)CC(O)C1CCCCCCC(=O)OCC` (stereo not shown) [Compound 98], the IC50 in experiment [6] is 2.15 µg/mL (≈ 5.38 µM). On the same count and under the same terms, then `CCCCCCCCN1C(=O)CCC(O)C1CCCCCCC` (stereo not shown) [Compound 99, 2-n-Heptyl-3-hydroxy-1-n-octyl-piperidin-6-one], with 1.55 µg/mL (≈ 4.76 µM).

Compound `CCCCCC(O)CCN1CCCC(O)C1CCCCCCCO` (stereo not shown) [Compound 100] gave a Concentration/ml. for contractions with gerbil colon of 0.01 to 0.02 µg/mL. The same measure, in the same setting: then `CCCCCC(CCN1CCC(O)C1CCCCCCCO)OCc1ccccc1` (stereo not shown) [Compound 101], with 0.04 to 0.10 µg/mL. Turning to `CCCCCC(O)CCN1CCC(O)C1CCCCCCCO` (stereo not shown) [Compound 102], the Concentration/ml. for contractions with gerbil colon lay within 0.04 to 0.10 µg/mL. The same compound came in with an inhibition at 100 µM in experiment [5] of 71%. With `OCCCCCCCC1C(O)CCCN1CCCOCc1ccccc1` (stereo not shown) [Compound 103], the half-maximal inhibitory concentration (IC50) in experiment [6] amounted to 0.35 µg/mL (≈ 0.963 µM). The compound `CCCCCC(CCN1CCCC(O)C1CCCCCCCO)OCc1ccccc1` (stereo not shown) [Compound 104, 1-(3'-Benzyloxy-n-octyl)-3-hydroxy-2-(7"-hydroxy-n-heptyl)piperidine] yielded an IC50 in [6] of 0.11 µg/mL (≈ 0.254 µM). In experiment [5], `CCCCCCC(O)CCN1CCCC(O)C1CCCCCCCO` (stereo not shown) [Compound 105] came in with an inhibition at 100 µM of 78%. The “% Depression at 1 mg/kg” value in the experiment with arterial blood pressure was found to be 20%. `CCCCCCC(O)CCN1CCC(O)C1CCCCCCCO` (stereo not shown) [Compound 108]: the antifertility activity result in the experiment on antifertility activity was “active”.

In the case of `CCCCCCCCN1CCCC(O)C1CCCCCCC` (stereo not shown) [Compound 112, 2-n-heptyl-3-hydroxy-1-n-octyl-piperidine], the vascular resistance entry in [7] is on record as “decreased vascular resistance”. Moreover, in experiment [5], the inhibition at 100 µM amounted to 77%. Further, the “total peripheral resistance (TPR)” value in experiment [8] is “decreased total peripheral resistance”. Further, the antifertility activity entry in the experiment with antifertility activity was “active”.
